Measurements taken from patent publication US10280139B2, “Cytotoxic peptides and conjugates thereof” (priority 2014, dated 2019).

Each compound was assayed on MDA-MB-231 clone 16, MDA-MB-231 clone 40, JimT-1 and HCC1954 cells (assay: Cell proliferation assays of anti-Her2 ADCs, results in words over the cell line panel). Conditions: Her2 high, medium and low cell lines.
Assay type: cell-based, human
Source text: Cells that naturally express target antigens or cell lines engineered to express target antigens are frequently used to assay the activity and potency of ADCs. For evaluation of the cell killing potency of anti-Her2 antibody ADCs in vitro, two engineered cell lines, MDA-MB-231 clone 16 and clone 40, and two endogenous cell lines, JimT-1 and HCC1954 cells were employed (Clinchy B, Gazdar A, Rabinovsky R, Yefenof E, Gordon B, Vitetta E S. Breast Cancer Res Treat. (2000) 61:217-228). MDA-MB-231 clone 16 cells stably express high copy numbers (˜5×10^5copies/cell) of recombinant human Her2 on the cell surface, while clone 40 expresses human Her2 at low levels (˜5×10^3 copies/cell). HCC1954 cells endogenously express high levels (˜5×10^5 copies/cell) of […] human Her2 in the surface while JimT-1 cells express human Her2 at a medium level (˜8×10^4 copies/cell). NCI-N87 cells express high levels of Her2 while A375 cell express low levels of Her2. An ADC should kill cells in an antigen-dependent manner, meaning that only cells that express sufficient antigen in the cell surface but not cells lacking the antigen will be killed. Therefore cell killing should not be observed MDA-MB-231 clone 40 cells.
(§1) To measure antigen-dependent cell killing, cell proliferation assays were conducted with Cell-Titer-Glo™ (Promega) five days after different cell types were incubated with various concentrations of ADCs (Riss et al., (2004) Assay Drug Dev Technol. 2:51-62).
Anti-Her2 ADCs prepared with compounds of the invention and conjugated site-specifically to anti-Her2 Cys mutant antibodies (see Table 5) were assayed in the aforementioned four cell lines to evaluate their cytotoxicity. […] In JimT-1 cells, a cell line with a medium level of Her2 expression, the cell killing activities by the ADCs varied widely. […] Many ADCs killed JimT-1 cell as effectively as HCC1954 and MDAMB231-16 cells (FIG. 1, Table 15). […] The significant differences of cytotoxic potency observed in JimT-1 cell amoung anti-Her2-LC-S159C ADCs have made it possible to rank the potency of the payloads. […] This is in contrast to the in vitro cell killing of both high and low Her2 expressing cell lines by free, unconjugated compounds of the invention (see Example 106,Table 14).

| Compound | Cell killing activity of anti-Her2 ADCs |
| --- | --- |
| CC[C@H](C)[C@@H]([C@@H](CC(=O)N1CCC[C@H]1[C@H](OC)[C@@H](C)C(=O)N[C@@H](Cc1ccccc1)C(=O)O)OC)N(C)C(=O)[C@@H](Nc1nc(C)cc(C(=O)NCCNC(=O)CCCCCN2C(=O)C=CC2=O)n1)C(C)C [NL-38, (S)-2-((2R,3R)-3-((S)-1-((3R,4S,5S)-4-((S)-2-((4-((2-(6-(2,5-dioxo-2,5-dihydro-1H-pyrrol-1-yl)hexanamido)ethyl)carbamoyl)-6-methylpyrimidin-2-yl)amino)-N,3-dimethylbutanamido)-3-methoxy-5-methylheptanoyl)pyrrolidin-2-yl)-3-methoxy-2-methylpropanamido)-3-phenylpropanoic acid] | active in HCC1954 and MDAMB231-16 cells but not in JimT-1 cells |
| CC[C@H](C)[C@@H]([C@@H](CC(=O)N1CCC[C@H]1[C@H](OC)[C@@H](C)C(=O)N[C@@H](Cc1ccccc1)P(=O)(O)O)OC)N(C)C(=O)[C@@H](N=C(N(C)C)N1CCN(C(=O)CCCCCN2C(=O)C=CC2=O)CC1)C(C)C (stereo in doubt) [NL-19, ((R)-1-((2R,3R)-3-((S)-1-((3R,4S,5S)-4-((S)-2-((E)-((dimethylamino)(4-(6-(2,5-dioxo-2,5-dihydro-1H-pyrrol-1-yl)hexanoyl)piperazin-1-yl)methylene)amino)-N,3-dimethylbutanamido)-3-methoxy-5-methylheptanoyl)pyrrolidin-2-yl)-3-methoxy-2-methylpropanamido)-2-phenylethyl)phosphonic acid] | active in HCC1954 and MDAMB231-16 cells but not in JimT-1 cells |
| CC[C@H](C)[C@@H]([C@@H](CC(=O)N1CCC[C@H]1[C@H](OC)[C@@H](C)C(=O)N[C@@H](Cc1ccccc1)C(=O)Nc1ccc(CNC(=O)CCCCCN2C(=O)C=CC2=O)cc1)OC)N(C)C(=O)[C@@H](/N=C(\N(C)C)N1CCNCC1)C(C)C [CL-5, N-(4-((S)-2-((2R,3R)-3-((S)-1-((3R,4S,5S)-4-((S)-2-((E)-((dimethylamino)(piperazin-1-yl)methylene)amino)-N,3-dimethylbutanamido)-3-methoxy-5-methylheptanoyl)pyrrolidin-2-yl)-3-methoxy-2-methylpropanamido)-3-phenylpropanamido)benzyl)-6-(2,5-dioxo-2,5-dihydro-1H-pyrrol-1-yl)hexanamide] | active in HCC1954 and MDAMB231-16 cells but not in JimT-1 cells |
| CC[C@H](C)[C@@H]([C@@H](CC(=O)N1CCC[C@H]1[C@H](OC)[C@@H](C)C(=O)N[C@@H](Cc1ccccc1)C(=O)NS(=O)(=O)CCCn1cc(CN2C(=O)C=CC2=O)nn1)OC)N(C)C(=O)[C@@H](Nc1nccc(C)n1)C(C)C [CL-24, (S)-2-((4-methylpyrimidin-2-yl)amino)-1-(((3R,4S,5S)-1-((S)-2-((1R,2R)-3-(((S)-N-1-(3-(4-((2,5-dioxo-2,5-dihydro-1H-pyrrol-1-yl)methyl)-1H-1,2,3-triazol-1-yl)propylsulfonamido)-1-oxo-3-phenylpropan-2-yl)amino)-1-methoxy-2-methyl-3-oxopropyl)pyrrolidin-1-yl)-3-methoxy-5-methyl-1-oxoheptan-4-yl)(methyl)amino)-3-methyl-1-oxobutane] | active in HCC1954 and MDAMB231-16 cells but not in JimT-1 cells |
| CC[C@H](C)[C@@H]([C@@H](CC(=O)N1CCC[C@H]1[C@H](OC)[C@@H](C)C(=O)N[C@@H](Cc1ccccc1)P(=O)(O)O)OC)N(C)C(=O)[C@@H](/N=C(\N(C)C)N1CCN(C(=O)CCCn2cc(CN3C(=O)C=CC3=O)nn2)CC1)C(C)C [NL-21, ((R)-1-((2R,3R)-3-((S)-1-((3R,4S,5S)-4-((S)-2-((E)-((dimethylamino)(4-(4-(4-((2,5-dioxo-2,5-dihydro-1H-pyrrol-1-yl)methyl)-1H-1,2,3-triazol-1-yl)butanoyl)piperazin-1-yl)methylene)amino)-N,3-dimethylbutanamido)-3-methoxy-5-methylheptanoyl)pyrrolidin-2-yl)-3-methoxy-2-methylpropanamido)-2-phenylethyl)phosphonic acid] | active in HCC1954 and MDAMB231-16 cells but not in JimT-1 cells |
| CC[C@H](C)[C@@H]([C@@H](CC(=O)N1CCC[C@H]1[C@H](OC)[C@@H](C)C(=O)N[C@@H](Cc1ccccc1)C(=O)O)OC)N(C)C(=O)[C@@H](NC(=O)N(CCCNC(=O)CCCCCN1C(=O)C=CC1=O)C(C)C)C(C)C [NL-30, (S)-2-((2R,3R)-3-((S)-1-((3R,4S,7S)-4-((S)-sec-butyl)-20-(2,5-dioxo-2,5-dihydro-1H-pyrrol-1-yl)-7,10-diisopropyl-3-methoxy-5-methyl-6,9,15-trioxo-5,8,10,14-tetraazaicosan-1-oyl)pyrrolidin-2-yl)-3-methoxy-2-methylpropanamido)-3-phenylpropanoic acid] | active in HCC1954 and MDAMB231-16 cells but not in JimT-1 cells |

Each compound was assayed on H526, KU812, CMK11-5 and Jurkat cells (assay: Cell proliferation assays of antibody 20507 ADCs, results in words over the cell line panel). Conditions: antigen expressing cells versus Jurkat.
Assay type: cell-based, human
Procedure: as §1

| Compound | Cell killing activity of antibody 20507 ADCs |
| --- | --- |
| CC[C@H](C)[C@@H]([C@@H](CC(=O)N1CCC[C@H]1[C@H](OC)[C@@H](C)C(=O)N[C@@H](Cc1ccccc1)C(=O)O)OC)N(C)C(=O)[C@@H](/N=C(\N(C)C)N1CCN(C(=O)CCCCCN2C(=O)C=CC2=O)CC1)C(C)C [NL-4, (S)-2-((2R,3R)-3-((S)-1-((3R,4S,5S)-4-((S)-2-((E)-((dimethylamino)(4-(6-(2,5-dioxo-2,5-dihydro-1H-pyrrol-1-yl)hexanoyl)piperazin-1-yl)methylene)amino)-N,3-dimethylbutanamido)-3-methoxy-5-methylheptanoyl)pyrrolidin-2-yl)-3-methoxy-2-methylpropanamido)-3-phenylpropanoic acid] | active when conjugated to antibody 20507 |
| CC[C@H](C)C([C@@H](CC(=O)N1CCC[C@H]1[C@H](OC)[C@@H](C)C(=O)N[C@@H](Cc1ccccc1)C(=O)NS(=O)(=O)CCCn1cc(CN2C(=O)C=CC2=O)nn1)OC)N(C)C(=O)[C@@H](N=C(N(C)C)N(C)C)C(C)C (stereo partly drawn) [CL-9, (S)-2-((Bis(dimethylamino)methylene)amino)-1-(((3R,4S,5S)-1-((S)-2-((1R,2R)-3-(((S)-N-1-(3-(4-((2,5-dioxo-2,5-dihydro-1H-pyrrol-1-yl)methyl)-1H-1,2,3-triazol-1-yl)propylsulfonamido)-1-oxo-3-phenylpropan-2-yl)amino)-1-methoxy-2-methyl-3-oxopropyl)pyrrolidin-1-yl)-3-methoxy-5-methyl-1-oxoheptan-4-yl)(methyl)amino)-3-methyl-1-oxobutane] | active when conjugated to antibody 20507 |
| CC[C@H](C)[C@@H]([C@@H](CC(=O)N1CCC[C@H]1[C@H](OC)[C@@H](C)C(=O)N[C@H](Cc1ccccc1)C(=O)Nc1ccc(CNC(=O)CCCCCN2C(=O)C=CC2=O)cc1)OC)N(C)C(=O)[C@@H](N=C(N(C)C)N(C)C)C(C)C [CL-1, N-(4-((R)-2-((2R,3R)-3-((S)-1-((3R,4S,5S)-4-((S)-2-((bis(dimethylamino)methylene)amino)-N,3-dimethylbutanamido)-3-methoxy-5-methylheptanoyl)pyrrolidin-2-yl)-3-methoxy-2-methylpropanamido)-3-phenylpropanamido)benzyl)-6-(2,5-dioxo-2,5-dihydro-1H-pyrrol-1-yl)hexanamide] | active when conjugated to antibody 20507 |
